From patent publication US20080076772A1, “Anti-Inflammatory Agents” (Pharma Mar S.A. Sociedad Unipersonal, priority 2004, published 2008)

Legend:
[1] = in vitro; conditions: human
Experimental: (§1) Purified populations of human blood monocytes were prepared as previously described by differential density centrifugation on Ficoll and Percoll gradients (see Allavena, P., Piemonti, L., Longoni, D., Bernasconi, S., Stoppacciaro, A., Ruco, L., and Mantovani, A. IL-10 prevents the differentiation of monocytes to dendritic cells but promotes their maturation to macrophages. Eur J Immunol, 28: 359-369, 1998). […] Human thymocytes were isolated from resected thymus from pediatric patients undergoing surgery. Thymocytes were obtained by teasing and isolated on Percoll gradient.
(§2) Cells were cultured at 10^6 cells/ml in complete medium RPMI (Biochrom, Berlin, FRG)+10% FCS (Hyclone, Logan, Utah). In vitro differentiated macrophages were obtained by culture of monocytes Monocyte-Colony Stimulating Factor (M-CSF) Peprotech (20 ng/ml), for 5 days. In some experiments, macrophages were treated with LPS (100 ng/ml) Sigma Aldrich, IFN gamma (500 IU/ml) or IL-4 (20 ng/ml) (Schering Plough) for 24 h.
(§3) Cell viability was analyzed by DNA content in Flow Cytometry
(§4) Cells exposed to treatments were fixed with ethanol 70%, washed in PBS and stained with propidium iodide (PI) solution containing 10 ug/ml PI in PBS and 25 μl RNAse 10,000 units, overnight in the dark. PI incorporation was evaluated on at least 20,000 cells/sample using a FACS Calibur instrument (Becton Dickinson, Sunnyvale, Calif., USA), with a bandpass filter at 620 nm. Apoptosis was detected by staining with AnnexinV and PI. FACS analysis was performed using a bandpass filter 530 and 620 nm for green (AnnexinV) and red (PI) fluorescence respectively, in combination with a […] dichroic mirror.
(§5) Purified preparations of blood monocytes, lymphocytes and thymocytes were cultured with different concentrations of ecteinascidin 743 for 48 h. Cell viability was assessed by DNA analysis and propidium iodide (PI) staining in Flow cytometry.
(§6) A kinetics analysis of the cytotoxic effect of ecteinascidin 743 was performed in the presence of M-CSF. Cells were treated with M-CSF (20 ng/ml) and different concentrations of ecteinascidin 743. Samples were collected at the indicated times and tested for DNA analysis.
(§7) Viability was assessed by PI staining and analyzed by Flow Cytometry.

[2] = tested on: blood monocytes; test: in vitro
Experimental: as §1, §2, §3, §4, §5, §6, §7

[3] = tested on: macrophage differentiation; test: In vivo treatment of tumour patients, in vitro differentiation of their monocytes to macrophages; parameters: species or system human; % inhibition of macrophage differentiation referred to cells before infusion: concentration or dose not given beside the values; conditions: for Absolute numbers of marker positive macrophages/10,000 cells, Exposure to ecteinascidin 743: end of 3-h infusion, 5 days M-CSF
Experimental: Expression of cell membrane markers was performed by immunofluoresce and analyzed by Flow Cytometry. Cells were incubated with anti-CD14, anti-CD16, anti-CD68, anti-CD206 (mannose receptor) and then with FITC-goat anti-mouse Ig as described. At least 10,000 cells were analyzed.
Patients with sarcoma or ovarian cancer undergoing Phase II trial with ecteinascidin 743, were admitted to the European Oncology institute, Milano, Italy. Patients received ecteinascidin 743 ([…]) in a 3-h infusion. Blood samples (40 ml) were collected immediately before the treatment and at the end of the infusion (+3 h). Blood samples were immediately processed and Percoll purified monocytes (usually 10^6 cells) were cultured with M-CSF (20 ng/ml) for 5 days. Differentiated cells were harvested, counted and analyzed for phenotype expression, as described above. Results are presented as absolute numbers of marker-positive cells/10,000 cells.
To validate the above in vitro findings we tested whether the in vivo administration of ecteinascidin 743 in tumour patients could have measurable effects on monocyte viability and capacity to macrophage differentiation in vitro. A phase II trial with ecteinascidin 743 is currently underway in advanced ovarian adenocarcinoma patients who had failed two different cycles of conventional cis-platin and taxol-based chemotherapy. Tumour patients selected for this study were treated with 1300 ug/ml/m2 of ecteinascidin 743. Blood samples from patients were drawn just before drug administration and at the end of a 3-hour infusion. Purified monocytes were immediately isolated and cultured with M-CSF (20 ng/ml) for 5 days to induce macrophage differentiation and then analalyzed for phenotype expression. […] The data shown are the absolute numbers of marker positive cells for a total of 10,000 input cells.

[4] = tested on: CCL2; test: CCL2 production by LPS-stimulated in vitro differentiated macrophages (ELISA); assay type: cell-based; conditions: Homo sapiens, Macrophage; 5 nM, LPS 100 ng/ml, 16 h, n=5
Experimental: Supernatants of untreated cells or cells treated with ecteinascidin 743 or other anti-neoplastic agents were collected after 24 h culture and frozen. Monocytes, macrophages and TAM were stimulated with 100 ng/ml LPS to induce maximal cytokine production. Determination of cytokines CCL2, TNF and IL-6 was measured by specific ELISA following the manufacturer's instructions.
Monocytes and in vitro differentiated macrophages were stimulated with LPS (100 ng/ml). After 1 h LPS stimulation they were treated with ecteinascidin 743. After 16 h incubation, cell supernatants were harvested and tested in ELISA. Under these treatment conditions cell viability was usually >85% for concentrations up to 5 nM. […] Mean inhibition at 5 nM, for monocytes, was 65% (range 50-80%, n=5) and was 50% (range 25-75%, n=5) for in vitro differentiated macrophages. Results are mean+/−SE of 3-5 experiments

[5] = tested on: TNF mRNA; test: Real time-PCR of TNF transcripts in LPS-stimulated monocytes; assay type: cell-based, human
Excerpt: To verify whether the inhibitory effect of ecteinascidin 743 on cytokine production was at the transcriptional level, we analyzed mRNA of CCL2 and TNF from LPS-stimulated macrophages by real time-PCR of CCL2 and TNF transcripts in LPS-stimulated monocytes exposed to ecteinascidin 743.

COc1cc2c(cc1O)CCN[C@]21CS[C@@H]2c3c(OC(C)=O)c(C)c4c(c3[C@H](COC1=O)N1[C@@H]2[C@H]2c3c(cc(C)c(OC)c3O)C[C@@H]([C@@H]1O)N2C)OCO4 [ecteinascidin 743]
viability at 5 days, 0.0005 µM [1]: 92%
viability at 5 days, 0.001 µM [1]: 70%
monocyte death ([2]; 5 nM, 48 h incubation, with M-CSF): 30%
monocyte death ([2]; 5 nM, 48 h incubation, without M-CSF): 55%
monocyte death ([2]; 10 nM, 24 h treatment, with M-CSF): 35%
monocyte death ([2]; 10 nM, 24 h treatment, without M-CSF): 65%
IC50 ([2]; Homo sapiens, Monocyte, 48 h, read-out: lethal dose 50% (IC50), monocyte mortality): 2.5 to 5 nM
mortality at 0.0025 µM ([2]; Homo sapiens, Monocyte, 120 h, read-out: mortality of monocytes): 40 to 50%
toxicity on monocytes (kinetics) ([2]; higher concentrations, after 24 h incubation, M-CSF 20 ng/ml): significant toxicity
subjects whose monocytes showed decreased macrophage differentiation after treatment ([3]; of 12 evaluable patients, blood at end of 3-hour infusion): 6
% inhibition of macrophage differentiation referred to cells before infusion ([3]; patient UPN 1, CD16): 60%
Absolute numbers of marker positive macrophages/10,000 cells, Exposure to ecteinascidin 743 ([3]; patient UPN 1, CD16): 1248 /10,000 cells
% inhibition of macrophage differentiation referred to cells before infusion ([3]; patient UPN 1, CD68): 45%
Absolute numbers of marker positive macrophages/10,000 cells, Exposure to ecteinascidin 743 ([3]; patient UPN 1, CD68): 1473 /10,000 cells
% inhibition of macrophage differentiation referred to cells before infusion ([3]; patient UPN 1, CD206): 88%
Absolute numbers of marker positive macrophages/10,000 cells, Exposure to ecteinascidin 743 ([3]; patient UPN 1, CD206): 550 /10,000 cells
% inhibition of macrophage differentiation referred to cells before infusion ([3]; patient UPN 2, CD16): 60%
Absolute numbers of marker positive macrophages/10,000 cells, Exposure to ecteinascidin 743 ([3]; patient UPN 2, CD16): 1105 /10,000 cells
% inhibition of macrophage differentiation referred to cells before infusion ([3]; patient UPN 2, CD68): 70%
Absolute numbers of marker positive macrophages/10,000 cells, Exposure to ecteinascidin 743 ([3]; patient UPN 2, CD68): 1060 /10,000 cells
% inhibition of macrophage differentiation referred to cells before infusion ([3]; patient UPN 2, CD206): 79%
Absolute numbers of marker positive macrophages/10,000 cells, Exposure to ecteinascidin 743 ([3]; patient UPN 2, CD206): 595 /10,000 cells
% inhibition of macrophage differentiation referred to cells before infusion ([3]; patient UPN 3, CD68): 80%
Absolute numbers of marker positive macrophages/10,000 cells, Exposure to ecteinascidin 743 ([3]; patient UPN 3, CD68): 632 /10,000 cells
% inhibition of macrophage differentiation referred to cells before infusion ([3]; patient UPN 3, CD206): 87%
Absolute numbers of marker positive macrophages/10,000 cells, Exposure to ecteinascidin 743 ([3]; patient UPN 3, CD206): 474 /10,000 cells
% inhibition of macrophage differentiation referred to cells before infusion ([3]; patient UPN 4, CD16): 41%
Absolute numbers of marker positive macrophages/10,000 cells, Exposure to ecteinascidin 743 ([3]; patient UPN 4, CD16): 3050 /10,000 cells
% inhibition of macrophage differentiation referred to cells before infusion ([3]; patient UPN 4, CD68): 55%
Absolute numbers of marker positive macrophages/10,000 cells, Exposure to ecteinascidin 743 ([3]; patient UPN 4, CD68): 2460 /10,000 cells
% inhibition of macrophage differentiation referred to cells before infusion ([3]; patient UPN 5, CD16): 63%
Absolute numbers of marker positive macrophages/10,000 cells, Exposure to ecteinascidin 743 ([3]; patient UPN 5, CD16): 594 /10,000 cells
% inhibition of macrophage differentiation referred to cells before infusion ([3]; patient UPN 5, CD68): 50%
Absolute numbers of marker positive macrophages/10,000 cells, Exposure to ecteinascidin 743 ([3]; patient UPN 5, CD68): 815 /10,000 cells
% inhibition of macrophage differentiation referred to cells before infusion ([3]; patient UPN 6, CD16): 83%
Absolute numbers of marker positive macrophages/10,000 cells, Exposure to ecteinascidin 743 ([3]; patient UPN 6, CD16): 480 /10,000 cells
% inhibition of macrophage differentiation referred to cells before infusion ([3]; patient UPN 6, CD68): 79%
Absolute numbers of marker positive macrophages/10,000 cells, Exposure to ecteinascidin 743 ([3]; patient UPN 6, CD68): 505 /10,000 cells
inhibition at 0.005 µM [4]: 50%
TNF mRNA [5]: unaffected
